IC50 data for 17 compounds are collected here from US8278312B2, “Imidazo 1,2-a pyrimidine derivatives for the treatment of diseases such as diabetes” (Merck Patent Gesellschaft mit Beschränkter Haftung, priority 2007, dated 2012).

Where only a bound is given, the exact number is not on record here.

The target of test [1] is T1, SGLT1 (Homo sapiens, UniProt P13866).
T1 construct: expressed in transfected cells
T1 sequence (P13866 1-664): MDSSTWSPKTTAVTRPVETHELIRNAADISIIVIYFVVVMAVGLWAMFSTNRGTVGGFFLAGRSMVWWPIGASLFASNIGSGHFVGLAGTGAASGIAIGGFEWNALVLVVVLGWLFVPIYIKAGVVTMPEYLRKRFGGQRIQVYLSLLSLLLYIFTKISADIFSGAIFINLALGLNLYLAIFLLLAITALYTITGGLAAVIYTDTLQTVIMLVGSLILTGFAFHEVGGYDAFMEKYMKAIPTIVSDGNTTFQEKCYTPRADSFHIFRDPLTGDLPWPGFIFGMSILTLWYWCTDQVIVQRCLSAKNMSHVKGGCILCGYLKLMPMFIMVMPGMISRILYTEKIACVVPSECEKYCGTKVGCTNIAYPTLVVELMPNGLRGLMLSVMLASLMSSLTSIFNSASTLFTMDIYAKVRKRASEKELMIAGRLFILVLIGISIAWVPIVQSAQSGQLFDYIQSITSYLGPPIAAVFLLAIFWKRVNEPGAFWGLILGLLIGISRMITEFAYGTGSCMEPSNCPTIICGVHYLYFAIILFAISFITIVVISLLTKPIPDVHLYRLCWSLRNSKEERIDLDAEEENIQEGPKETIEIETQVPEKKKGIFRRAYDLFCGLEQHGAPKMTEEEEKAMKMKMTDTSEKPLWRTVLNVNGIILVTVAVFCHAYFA
Briefly: 14C-AMG uptake in BHK cells transfected with SGLT1 (96-well cell-based assay). As to conditions: 50 μM AMG, 37° C., 90 min. The source says: (§1) The compounds can be tested for their SGLT inhibition properties by means of BHK cells expressing SGLT1 and SGLT2. The production of the cells and the testing can be carried out as described below.
To construct the SGLT1 expression vector (KL225), the SLC5A1 gene (homologous to NM_000343) was amplified from a cDNA library using standard PCR technology and cloned over NheI/XhoI sites into the pcDNA3.1 expression vector (Invitrogen) containing neomycin as a selection marker. In this vector, transcription uses the enhancer/promoter of human cytomegalovirus.
(§2) The final vector KL225 together with an additional vector containing a dihydrofolate reductase gene as a selection marker was introduced into cells. Transfection into BHK21 cells (ATCC CCL-10), cultivated in DMEM medium (GIBCO/BRL), supplemented with 10% foetal calf serum (FCS) and 20 mM glutamine, was carried out using calcium phosphate transfections according to Graham, F. L. and van der Ebb, A. J. (1973), Virology 52: 456 with 5-20 μg of uncut plasmids for 10^7 cells. Stable transfectants were selected in medium containing 1 mg/ml of G418 (GIBCO/BRL) and 20-5000 nM methotrexate as final concentration, where only cells which expressed the neomycin gene and overexpressed the dhfr gene were able to grow. After growth for 2-3 weeks, the cells were cloned (0.5 cells/well) and the clones were investigated for SGLT expression in radioactivity uptake tests. […]
(§3) A 96-well cell-based assay was developed and adapted to HTS requirements:
(§4) BHK cells (transfected with SGLT1 or SGLT2) were seeded into 96-well microtitre plates (Cultureplates, Perkin Elmer). After at least 24 h, medium was removed, and the cell layer was washed with assay buffer (140 mM NaCl, 2 mM KCl, 1 mM CaCl2, 1 mM MgCl2, 10 mM HEPES, 5 mM Tris, adjusted to pH 7.4 using 1 M KOH). After addition of 40 μl of assay buffer, 50 μl of AMG (50 μM for SGLT1 and 2 mM for SGLT2) in the presence or absence of compounds, the cells were incubated in a total volume of 100 μl at 37° C. for 90 min. Supernatant was removed by suction and discarded. Cells were washed and lysed by addition of 50 μl of water. After 10 min at room temperature, 200 μl of Micrsoscint 40 (Perkin Elmer) were added. The radioactivity was counted in a Topcount microplate scintillation counter (Perkin Elmer). The non-specific uptake was determined in sodium-free assay buffer (266 mM sucrose, 2 mM KCl, 1 mM CaCl2, 1 mM MgCl2, 10 mM HEPES, 5 mM Tris, adjusted to pH 7.4 using 1 M KOH).

Test [2] concerns the target T2, SGLT2 (Homo sapiens, UniProt P31639).
T2 construct: expressed in transfected cells
T2 sequence (P31639 1-672): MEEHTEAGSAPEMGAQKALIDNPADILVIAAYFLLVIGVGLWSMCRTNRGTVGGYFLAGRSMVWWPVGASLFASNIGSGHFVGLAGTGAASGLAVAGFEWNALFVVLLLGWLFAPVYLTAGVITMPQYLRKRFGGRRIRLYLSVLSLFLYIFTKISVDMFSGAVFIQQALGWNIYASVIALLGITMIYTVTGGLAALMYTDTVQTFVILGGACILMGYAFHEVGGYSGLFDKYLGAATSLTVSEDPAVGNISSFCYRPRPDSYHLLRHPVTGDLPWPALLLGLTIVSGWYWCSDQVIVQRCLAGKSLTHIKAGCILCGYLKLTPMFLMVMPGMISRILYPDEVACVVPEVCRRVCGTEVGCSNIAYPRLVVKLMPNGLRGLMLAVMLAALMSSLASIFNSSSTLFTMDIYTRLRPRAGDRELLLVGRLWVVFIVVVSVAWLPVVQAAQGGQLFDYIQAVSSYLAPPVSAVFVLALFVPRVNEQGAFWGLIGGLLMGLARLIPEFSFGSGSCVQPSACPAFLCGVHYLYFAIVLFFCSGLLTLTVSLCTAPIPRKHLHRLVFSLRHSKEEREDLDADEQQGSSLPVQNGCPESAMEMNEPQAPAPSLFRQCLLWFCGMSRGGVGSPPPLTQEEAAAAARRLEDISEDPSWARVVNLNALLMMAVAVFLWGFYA
Briefly: 14C-AMG uptake in BHK cells transfected with SGLT2 (96-well cell-based assay). Conditions: 2 mM AMG, 37° C., 90 min.
Excerpt: as §1
To construct the SGLT2 expression vector (KL224), the SLC5A2 gene (homologous to NM_003041) was amplified from a cDNA library using standard PCR technology and cloned over NheI/XhoI sites into PCI-neo expression vector (Promega) containing neomycin as a selection marker. In this vector, transcription uses the enhancer/promoter of human cytomegalovirus and the SV40 polyadenylation signal.
as §2, with “KL224” for “KL225”
as §3, §4

Consider `Cc1cccc(C)c1Nc1c(-c2ccccc2OCC(N)=O)nc2ncccn12` [Compound A1, 2-{2-[3-(2,6-Dimethylphenylamino)-imidazo[1,2-a]pyrimidin-2-yl]phenoxy}-acetamide], for which the IC50 – broadly, the concentration needed to halve the response being measured – is above 10 µM in test [1] and 1000 to 10000 nM in test [2].
Consider `Cc1cc(C)n2c(Nc3c(C)cccc3C)c(-c3ccccc3OCC(N)=O)nc2n1` [Compound A2], for which the concentration for half-maximal inhibition (IC50) in test [1] is above 10 µM; in test [2] it was above 10000 nM.
In the case of `CNc1nnc(-c2cc(OC)cc(OC)c2-c2nc3ncccn3c2Nc2c(Cl)cccc2Cl)o1` [Compound A3, (2,6-dichlorophenyl)-{2-[2,4-dimethoxy-6-(5-methylamino-1,3,4-oxadiazol-2-yl)phenyl]imidazo[1,2-a]pyrimidin-3-yl}amine], the IC50 in test [1] was in the range of 0.01 to 1 µM; in test [2], 10 to 1000 nM.
In the case of `CNc1nnc(-c2cc(OC)cc(OC)c2-c2nc3ncccn3c2Nc2c(Cl)cc(F)cc2Cl)o1` [Compound A4, (2,6-Dichloro-4-fluorophenyl)-{2-[2,4-dimethoxy-6-(5-methylamino-1,3,4-oxadiazol-2-yl)phenyl]imidazo[1,2-a]-pyrimidin-3-yl}amine], the IC50 in test [1] lay in the range of 0.01 to 1 µM; in test [2], 10 to 1000 nM.
Regarding `CCNc1nnc(-c2cc(OC)cc(OC)c2-c2nc3ncccn3c2Nc2c(Cl)cccc2Cl)o1` [Compound A5, (2,6-Dichlorophenyl)-{2-[2-(5-ethylamino-1,3,4-oxadiazol-2-yl)-4,6-dimethoxy-phenyl]imidazo[1,2-a]pyrimidin-3-yl}-amine], the IC50 is 1 to 10 µM in test [1] and 10 to 1000 nM in test [2].
As to `COc1cc(OC)c(-c2nc3ncccn3c2Nc2c(Cl)cccc2Cl)c(-c2n[nH]c(=O)o2)c1` [Compound A6, 5-{2-[3-(2,6-dichlorophenylamino)imidazo[1,2-a]-pyrimidin-2-yl]-3,5-dimethoxyphenyl}-3H-1,3,4-oxadiazol-2-one], the results for the IC50 in test [1] and in test [2] were above 10 µM and 1000 to 10000 nM, respectively.
Turning to `CCc1cccc(OCC(N)=O)c1-c1nc2ncccn2c1Nc1c(Cl)cccc1Cl` [Compound A7], the IC50 lay in the range of 1 to 10 µM in test [1] and 10 to 1000 nM in test [2].
In the case of `CCc1cccc(OCC(N)=O)c1-c1nc2ncccn2c1Nc1c(C)cccc1C` [Compound A8, 2-{2-[3-(2,6-dimethylphenylamino)imidazo[1,2-a]-pyrimidin-2-yl]-3-ethylphenoxy}acetamide], the IC50 in test [1] is 1 to 10 µM; in test [2] it was 1000 to 10000 nM.
In the case of `CCc1cc(OC)cc(OCC(N)=O)c1-c1nc2ncccn2c1Nc1c(C)cccc1C` [Compound A9], the results for the IC50 in test [1] and in test [2] were above 10 µM and 10 to 1000 nM, respectively.
With `COc1cc(C)c(-c2nc3ncccn3c2Nc2c(C)cccc2C)c(OCC(N)=O)c1` [Compound A10, 2-{2-[3-(2,6-Dimethylphenylamino)-imidazo[1,2-a]pyrimidin-2-yl]-5-methoxy-3-methylphenoxy}acetamide], the values for the IC50 in test [1] and in test [2] were above 10 µM and 10 to 1000 nM, respectively.
Consider `CNc1nnc(-c2cc(OC)cc(OC)c2-c2nc3ncccn3c2Nc2c(C)cccc2C)o1` [Compound A11, {2-[2,4-Dimethoxy-6-(5-methylamino-1,3,4-oxadiazol-2-yl)phenyl]imidazo-[1,2-a]pyrimidin-3-yl}-(2,6-dimethyl-phenyl)amine], for which the IC50 lay within 1 to 10 µM in test [1] and 10 to 1000 nM in test [2].
The like results for `CCc1cc(OC)cc(OCC(N)=O)c1-c1nc2ncccn2c1Nc1c(Cl)cccc1Cl` [Compound A12, 2-{2-[3-(2,6-Dichlorophenylamino)-imidazo[1,2-a]pyrimidin-2-yl]-3-ethyl-5-methoxyphenoxy}acetamide] were, in that order, above 10 µM and 10 to 1000 nM.
The like results for `CNc1nnc(-c2ccccc2-c2nc3ncccn3c2Nc2c(Cl)cc(F)cc2Cl)o1` [Compound A13, (2,6-Dichloro-4-fluorophenyl)-{2-[2-(5-methylamino-1,3,4-oxadiazol-2-yl)-phenyl]imidazo[1,2-a]pyrimidin-3-yl}-amine] were, in that order, 1 to 10 µM and 10 to 1000 nM.
As for `CCNc1nnc(-c2ccccc2-c2nc3ncccn3c2Nc2c(Cl)cccc2Cl)o1` [Compound A15, (2,6-Dichlorophenyl)-{2-[2-(5-ethylamino-1,3,4-oxadiazol-2-yl)phenyl]imidazo-[1,2-a]pyrimidin-3-yl}amine], the results for the IC50 in test [1] and in test [2] were 1 to 10 µM and 10 to 1000 nM, respectively.
The corresponding values for `CNc1nnc(-c2cc(Cl)cc(Cl)c2-c2nc3ncccn3c2Nc2c(C)cccc2C)o1` [Compound A16, {2-[2,4-Dichloro-6-(5-methylamino-1,3,4-oxadiazol-2-yl)phenyl]imidazo[1,2-a]-pyrimidin-3-yl}-(2,6-dimethylphenyl)amine] are 1 to 10 µM and 10 to 1000 nM.
Take `COc1cc(C(N)=O)c(-c2nc3ncccn3c2Nc2c(Cl)cccc2Cl)c(OC)c1OC` [Compound A17, 2-[3-(2,6-dichlorophenylamino)imidazo[1,2-a]pyrimidin-2-yl]-3,5,4-trimethoxybenzamide]: the IC50 in test [1] is above 10 µM; in test [2] it was 1000 to 10000 nM.
Consider `COc1cc(OC)c(-c2nc3ncccn3c2Nc2c(Cl)cccc2Cl)c(C(=O)NN)c1` [Compound A18, 2-[3-(2,6-dichlorophenylamino)imidazo[1,2-a]pyrimidin-2-yl]-3,5-dimethoxybenzohydrazide], for which the IC50 is above 10 µM in test [1] and 1000 to 10000 nM in test [2].
